Laboratory results reported in a melting point compilation (Tetko et al.; mined from patent text by program, amines drawn as free bases though some values may be those of a salt).

**Q.** With `CC(O)CN(CC(C)O)c1cc(C(C)(C)C)cc(C(C)(C)C)c1` (stereo unspecified) as the compound, how does the melting point read?
**A.** 139 °C

**Q.** With `CC(=O)NCCNC(=O)c1[nH]c(C)c(-c2nc3ccc(C(=O)c4ccccc4)cc3[nH]2)c1C` as the compound, how does the melting point read?
**A.** 272 to 273 °C

**Q.** Which melting point does the source give for `O=C(c1ccc(OC2CCOCC2)cc1)c1ccc([N+](=O)[O-])cc1` here?
**A.** 105 to 106 °C

**Q.** With `CC(C)NC1=Nc2ccc(Cl)cc2S(=O)(=O)N1C` as the compound, how does the melting point read?
**A.** 139 to 141 °C

**Q.** With `CCCCOC(=O)c1cc([N+](=O)[O-])ccc1N` as the compound, how does the melting point read?
**A.** 91 to 93 °C

**Q.** Which melting point does the source give for `CN(CCCc1ccccc1)[C@H]1CC[C@H](c2ccc([N+](=O)[O-])cc2)CC1` here?
**A.** 55 to 56 °C

**Q.** With `O=S(=O)(Nc1ccc(OCc2ccc3ccccc3n2)cc1)c1cccc(C(F)(F)F)c1` as the compound, how does the melting point read?
**A.** 81 to 83 °C

**Q.** With `NCC1COc2cc(F)cc(-c3ccccc3F)c2N1` (stereo unspecified) as the compound, how does the melting point read?
**A.** 77 °C

**Q.** Which melting point does the source give for `COc1cc(C(C)=O)ccc1OCCN1CCN(c2n[nH]c3cc(Cl)ccc23)CC1` here?
**A.** 154 to 156 °C

**Q.** Which melting point does the source give for `Cc1cc(-c2cccc(C3=Nc4ccc(-c5ccccc5F)cc4NC(=O)C3)c2)on1` here?
**A.** 222 to 224 °C

**Q.** Which melting point does the source give for `Cc1cc(OCc2ccccc2)cc(C)c1NC(=O)CCl` here?
**A.** 165 °C

**Q.** For `CCOC(=O)c1cc(CC)sc1Nc1ccc(F)cc1N`, which melting point is on record?
**A.** 82 to 84 °C

**Q.** Which melting point does the source give for `O=CC(CC(=O)O)NC(=O)[C@@H]1CCCN1C(=O)c1nc(CCc2ccccc2)c[nH]1` (stereo partly specified) here?
**A.** 102 to 104 °C

**Q.** Which melting point does the source give for `O=S1NC(CCCc2ccc3ccccc3c2)=NO1` (stereo unspecified) here?
**A.** 139 to 140 °C

**Q.** For `COc1ccc(C2CNC(=O)N2C)cc1OC1CC2CCC1C2` (stereo unspecified), which melting point is on record?
**A.** 142 to 144 °C

**Q.** For `COc1ccc(C(=O)c2cc3cccc(Br)c3o2)cc1OC`, which melting point is on record?
**A.** 137 to 138 °C

**Q.** With `NS(=O)(=O)c1ccc(-c2cnn(-c3ccc(F)c(Cl)c3)c(=O)c2-c2ccc(F)cc2)cc1` as the compound, how does the melting point read?
**A.** 208 to 210 °C

**Q.** For `NC(=O)c1cc2ccccc2cc1N`, which melting point is on record?
**A.** 234 to 235 °C

**Q.** With `O=C(NC(Cc1c[nH]c2ccccc12)C(=O)C(=O)CCl)OC1C2CC3CC(C2)CC1C3` (stereo unspecified) as the compound, how does the melting point read?
**A.** 56 to 63 °C

**Q.** With `CCCCCC(C)C(C)c1cc(O)c2c(c1)OC(C)(C)C1=C2CN(CC(=O)N(C)C)CC1` (stereo unspecified) as the compound, how does the melting point read?
**A.** 122 to 124 °C

**Q.** For `C#CCn1cccc1-c1nc(-c2ccc(OC)cc2)c(-c2ccc(OC)cc2)s1`, which melting point is on record?
**A.** 102 to 104 °C

**Q.** For `Cc1ccccc1-c1c(NC(=O)Nc2ccc(F)cc2F)c(=O)n(C)c2ccc(Cl)cc12`, which melting point is on record?
**A.** 163 to 165 °C

**Q.** For `O=CNc1cc(F)ccc1F`, which melting point is on record?
**A.** 112 to 114 °C

**Q.** For `COc1ccc(Oc2nccc(-c3c(-c4ccc(F)cc4)ncn3C3CCNCC3)n2)cc1`, which melting point is on record?
**A.** 190 to 191 °C

**Q.** Which melting point does the source give for `N#CC1=C(Nc2cccc(F)c2)CCC1` here?
**A.** 98 to 100 °C

**Q.** Which melting point does the source give for `COC(=O)NC(=O)c1c(Br)ccc2c(C(F)(F)F)c(OC)ccc12` here?
**A.** 180 to 182 °C

**Q.** With `CCOC(=O)c1oc2cc(O)ccc2c(=O)c1C#N` as the compound, how does the melting point read?
**A.** 262 to 264 °C

**Q.** Which melting point does the source give for `CN(C)c1ccc(CN/C=C2\C(=O)NC(=O)c3ccc(I)cc32)cc1O` here?
**A.** 198 to 199 °C

**Q.** For `CC(C)[C@](O)(CCc1ccc(O)cc1)CC(=O)O`, which melting point is on record?
**A.** 137 to 140 °C

**Q.** For `Oc1c(S)cc(I)cc1I`, which melting point is on record?
**A.** 178 to 180 °C

**Q.** With `COC(OC)C(C)n1nnc2ccc(OCc3ccccc3)cc21` (stereo unspecified) as the compound, how does the melting point read?
**A.** 101 to 103 °C

**Q.** Which melting point does the source give for `NCC1Cc2c(ccc3c2CCCC3)O1` (stereo unspecified) here?
**A.** > 225 °C

**Q.** Which melting point does the source give for `CC(=NOC(=O)Nc1ccccc1)C(C)N(C(=O)CCl)c1c(C)cccc1C` (stereo unspecified) here?
**A.** 115 to 117 °C

**Q.** Which melting point does the source give for `COc1ccc(C2CC(=O)c3c(C)coc3C2)cc1` (stereo unspecified) here?
**A.** 82 to 83 °C

**Q.** For `CCOc1ncnc(C(F)(F)F)c1CS(=O)(=O)C1=NOC(C)(CCl)C1` (stereo unspecified), which melting point is on record?
**A.** 76 to 78 °C

**Q.** Which melting point does the source give for `O=C1Cc2cc(F)c(N3C(=O)C4=C(CCCC4)C3=O)cc2N1` here?
**A.** 234 to 236 °C

**Q.** With `COc1ccc(N2CCN(c3c(C)c(C)c4c(c3C)CC(C)(CN3CCC(O)CC3)O4)CC2)cc1` (stereo unspecified) as the compound, how does the melting point read?
**A.** 139 to 143 °C

**Q.** Which melting point does the source give for `COc1ccc2c(c1)c(CC1=CC(=O)N=N1)c(C)n2C(=O)c1ccc(Cl)cc1` here?
**A.** > 230 °C

**Q.** For `CCOc1nc2nc(C(OC(C)=O)C3(Br)C(=O)N4C(C(=O)OCc5ccc([N+](=O)[O-])cc5)=CSC43)cn2c2c1CCC2` (stereo unspecified), which melting point is on record?
**A.** 119 °C

**Q.** Which melting point does the source give for `N#Cc1nn(-c2c(Cl)cc(C(F)(F)F)cc2Cl)c(-n2cccc2)c1S(=O)C(F)(F)F` (stereo unspecified) here?
**A.** 165 to 167 °C

**Q.** Which melting point does the source give for `CCOC(=O)CN(C(=O)N1CCN(c2cc(C)cc(C)c2)CC1)c1cc(C(C)O)c(C)nc1OC` (stereo unspecified) here?
**A.** 68 to 70 °C

**Q.** For `FC(F)=C(F)Oc1ccc(C2(c3ccc(OC(F)=C(F)F)cc3)c3ccccc3-c3ccccc32)cc1`, which melting point is on record?
**A.** 115 to 116 °C

**Q.** Which melting point does the source give for `C=CCc1cc2c(C)c(C#N)c(=O)oc2c(C)c1O` here?
**A.** 163 to 164 °C

**Q.** Which melting point does the source give for `O=C(Nc1cccc(C(F)(F)F)c1)C(=O)N1CCC(Cc2ccccc2)CC1` here?
**A.** 87 to 89 °C

**Q.** With `CN(C)c1ccc(NC(=O)N(Cc2ccco2)C[C@@H]2CCC[C@H](CN(Cc3ccco3)C(=O)Nc3ccc(N(C)C)cc3)C2)cc1` as the compound, how does the melting point read?
**A.** 68 to 73 °C

**Q.** Which melting point does the source give for `O=C1NC(=C2CCCC2)Sc2ccccc21` here?
**A.** 190 to 191 °C

**Q.** With `CC(=S)NC[C@H]1CN(c2ccc(N3CCC(=O)N(C)CC3)c(F)c2)C(=O)O1` as the compound, how does the melting point read?
**A.** 157 to 158 °C

**Q.** With `CCCCS(=O)(=O)Nc1nc(CN2CCN(C(c3ccccc3)c3ccccc3)CC2)cs1` as the compound, how does the melting point read?
**A.** 185 to 187 °C

**Q.** For `CCCCCCc1c(C(F)(F)F)noc1NS(=O)(=O)c1ccccc1`, which melting point is on record?
**A.** 128 to 129 °C

**Q.** With `c1csc(-c2ccnc(-c3cc(-c4cccs4)ccn3)c2)c1` as the compound, how does the melting point read?
**A.** > 250 °C

**Q.** Which melting point does the source give for `CCOCc1cccc2cc(C(N)=O)oc12` here?
**A.** 133 to 134 °C

**Q.** With `CCCCCC(=O)NC(Cc1cnc(SCCC)n1Cc1ccccc1Cl)C(=O)O` (stereo unspecified) as the compound, how does the melting point read?
**A.** 118 to 121 °C

**Q.** With `CCCC(NS(=O)(=O)c1ccc(C)cc1)P(=O)(Oc1ccccc1)Oc1ccccc1` (stereo unspecified) as the compound, how does the melting point read?
**A.** 178 to 180 °C

**Q.** For `O=C(O)C(=O)c1cn2c3c(cccc13)CCC2`, which melting point is on record?
**A.** 152 to 155 °C

**Q.** With `CS(=O)(=O)c1ccc(-c2nn3ccoc3c2-c2ccc(F)cc2)cc1` as the compound, how does the melting point read?
**A.** 67 to 70 °C

**Q.** For `COc1ccc(SCc2ccc(F)cc2F)c(Cl)c1Cl`, which melting point is on record?
**A.** 86 to 88 °C

**Q.** For `CNc1cc(Oc2ccc3ncccc3c2)ncn1`, which melting point is on record?
**A.** 173 °C

**Q.** For `Fc1ccc(Cn2c(NCCN3CCC(Nc4nc5ccccc5n4Cc4ccc(F)cc4)CC3)nc3ccccc32)cc1`, which melting point is on record?
**A.** 197 °C

**Q.** With `CS(=O)(=O)c1ccc(C2=C(c3ccccc3)CCC2)cc1` as the compound, how does the melting point read?
**A.** 136 to 137 °C

**Q.** For `O=[N+]([O-])c1ccc(/C=C/c2c(F)cccc2F)cc1`, which melting point is on record?
**A.** 136 to 137 °C

**Q.** Which melting point does the source give for `CCOC(=O)c1cnc(-c2cc(N)ccc2OCC)[nH]c1=O` here?
**A.** 107 to 110 °C

**Q.** For `O=C(O)CCc1cccc(OCc2nc(-c3ccccc3)c(-c3ccccc3)o2)c1`, which melting point is on record?
**A.** 118 to 120 °C

**Q.** With `Cc1oc(-c2ccco2)nc1CCc1ccc(CCCC2OC(=O)NC2=O)cc1` (stereo unspecified) as the compound, how does the melting point read?
**A.** 123 to 124 °C

**Q.** For `Cc1cccc(Nc2ncnc3cc(NCCCN(C)C)c(N)cc23)c1`, which melting point is on record?
**A.** 60 to 66 °C

**Q.** For `CS(=O)(=O)c1ccc(-c2ccc(C=C(Cl)Cl)s2)cc1`, which melting point is on record?
**A.** 143 to 145 °C

**Q.** Which melting point does the source give for `CN(N)c1nc(C(F)(F)F)nc2ccccc12` here?
**A.** 130 to 132 °C

**Q.** With `CCC(=O)NC1=NN(c2nc3ccccc3s2)C(c2ccc(C)cc2)C1` (stereo unspecified) as the compound, how does the melting point read?
**A.** 208 to 209 °C

**Q.** With `CC=CCONC(C)=C1C(=O)CC(CCSc2ccc(C(F)(F)F)cc2)CC1=O` (stereo unspecified) as the compound, how does the melting point read?
**A.** 72 to 73 °C

**Q.** With `COc1cc(N2CCOCC2)ccc1Nc1nc(Nc2cc(F)cc3c2OCCNC3=O)ncc1Cl` as the compound, how does the melting point read?
**A.** > 230 °C

**Q.** Which melting point does the source give for `CC(C)(C)OC(=O)Nc1cc(N2CCC3(CC2)OCCO3)c(I)cc1[N+](=O)[O-]` here?
**A.** 132 to 134 °C

**Q.** With `CC(=O)OCCOc1ccc2oc3cc(C#N)ccc3c(=O)c2c1` as the compound, how does the melting point read?
**A.** 194 to 196 °C
